{"source": "patent US7282356B2", "about": "“D-aminoacylase mutants” (Daicel Chemical Industries, Ltd., priority 2002, dated 2007)", "molecules": {"B1": {"name": "D-aminoacylase produced with the modified D-aminoacylase gene: wild-type amino acid sequence (SEQ ID NO: 1) expressed from codon-modified gene SEQ ID NO: 3 in plasmid pSL-ADD6 (protein)", "chain": "MSQSDSQPFDLLLAGGTLIDGSNTPGRRADLGVRGDRIAAIGDLSDAAAHTRVDVSGLVVAPGFIDSHTHDDNYLLRRRDMTPKISQGVTTVVTGNCGISLAPLAHANPPAPLDLLDEGGSYRFERFADYLDALRATPAAVNAACMVGHSTLRAAVMPDLQRAATDEEIAAMRDLAEEAMASGAIGISTGAFYPPAARATTEEIIEVCRPLSAHGGIYATHMRDEGEHIVAALEETFRIGRELDVPVVISHHKVMGQPNFGRSRETLPLIEAAMARQDVSLDAYPYVAGSTMLKQDRVLLAGRTIITWCKPFPELSGRDLDEVAAERGKSKYDVVPELQPAGAIYFMMDEPDVQRILAFGPTMIGSDGLPHDERPHPRLWGTFPRVLGHYARDLGLFPLETAVWKMTGLTAARFGLAGRGQLQAGYFADLVVFDPATVADTATFEHPTERAAGIHSVYVNGAPVWQEQAFTGQHAGRVLARTAA", "modifications": "Alcaligenes denitrificans subsp. xylosoxydans MI-4"}}, "key": {"[1]": {"test_system": "CC(=O)N[C@H](Cc1c[nH]c2ccccc12)C(=O)O", "experiment": "Inhibition/kinetics test of purified mutant D-aminoacylase R374-0017", "format": "biochemical, Alcaligenes denitrificans subsp. xylosoxydans MI-4", "settings": "other: 30° C., pH7.5, for N-acetyl-D-tryptophan, pH 7.5", "procedure": "(§1) The enzyme reaction can be achieved by incubating 1.0 ml of a reaction solution containing 20 mM N-acetyl-D-tryptophan (Sigma), 50 mM Tris-hydrochloride buffer (pH 7.5), and an enzyme solution at 30° C. for 10 minutes. Then, the reaction is stopped by adding 0.5 ml of a stop solution containing TCA (comprising 0.11 M trichloroacetic acid, 0.22 M sodium acetate, and 0.33 M acetic acid). The amount of D-tryptophan produced can be determined by TNBS method (Biosci. Biotech. Biochem., 58, 24 (1994)).\n(§2) For example, 0.25 ml of 100 mM Na2B4O7 is added to 0.25 ml of the stop solution, 10 μl of 110 mM TNBS (trinitrobenzenesulfonic acid) solution is added to the mixed solution, and immediately thereafter, the resulting mixture is stirred. After the mixture is allowed to stand for five minutes, 1 ml of 100 mM NaHPO4 containing 1.5 mM Na2SO3 is added to the mixture to stop the color reaction. Then, the absorbance of the solution is determined at 420 nm. One unit of the enzyme activity is defined as the amount of enzyme that catalyzes the production of 1 μmol of D-tryptophan at 30° C. for one minute.\n(§3) The rate constants of the reaction with N-acetyl-D-tryptophan and N-acetyl-L-tryptophan that is catalyzed by the thus-purified wild-type derived from Alcaligenes denitrificans subsp. xylosoxydans MI-4 or mutant D-aminoacylases of the present invention, can be determined according to the methods described in “Lectures for Biochemical Experiments 21: Introduction to Experimental Approach to Enzyme Kinetics” and “Basic Experimental Methods for Proteins and Enzymes, 2nd Ed.” Michaelis constant is represented by Km; the maximal rate is Vmax; inhibition constant is Ki; the constant for reaction inhibition by excess substrate is Ks′.\n(§4) The mutant D-aminoacylase R374-0017 was purified from an E. coli transformant having the plasmid pSL-AD09 that contains DNA encoding the mutant D-aminoacylase R374-0017 by the same method as described in Example 19.\n(§5) The D-aminoacylases purified in Examples 20 to 23 were tested for the inhibition by N-acetyl-D-tryptophan and N-acetyl-L-tryptophan. The reaction rate constants for N-acetyl-D-tryptophan and N-acetyl-L-tryptophan were determined according to the methods described in “Lectures for Biochemical Experiments 21: Introduction to Experimental Approach to Enzyme Kinetics” and “Basic Experimental Methods for Proteins and Enzymes, 2nd Ed.” Michaelis constant is represented by Km; the maximal rate is Vmax; inhibition constant is Ki; the constant for reaction inhibition by excess substrate is represented by Ks′. Km and Vmax were determined from a Lineweaver-Burk reciprocal plot; Ki was determined from a second-order plot (Royer); and Ks′ was determined from a [S] −1/v plot."}, "[2]": {"test_system": "CC(=O)N[C@H](Cc1c[nH]c2ccccc12)C(=O)O", "experiment": "Inhibition/kinetics test of purified mutant D-aminoacylase M347-0133", "format": "biochemical, Alcaligenes denitrificans subsp. xylosoxydans MI-4", "settings": "other: 30° C., pH7.5, for N-acetyl-D-tryptophan, pH 7.5", "procedure": "as §1, §2, §3\n(§6) The mutant D-aminoacylase M347-0133 was purified from an E. coli transformant having the plasmid pSL-AD08 that contains DNA encoding the mutant D-aminoacylase M347-0133 by the same method as described in Example 19.\nas §5"}, "[3]": {"target": "Alcaligenes denitrificans subsp. xylosoxydans MI-4 D-aminoacylase, wild-type, SEQ ID NO: 1 (Alcaligenes xylosoxydans xylosoxydans, UniProt P72349)", "experiment": "Inhibition/kinetics test of purified wild-type D-aminoacylase"}, "[4]": {"target": "T1, Alcaligenes denitrificans subsp. xylosoxydans MI-4 D-aminoacylase mutant M347-0133 (M347A of SEQ ID NO: 1) (Alcaligenes xylosoxydans xylosoxydans, UniProt P72349, M347A)", "T1 construct": "made in house; host or cells: E. coli", "T1 sequence (P72349 whole entry M347A)": "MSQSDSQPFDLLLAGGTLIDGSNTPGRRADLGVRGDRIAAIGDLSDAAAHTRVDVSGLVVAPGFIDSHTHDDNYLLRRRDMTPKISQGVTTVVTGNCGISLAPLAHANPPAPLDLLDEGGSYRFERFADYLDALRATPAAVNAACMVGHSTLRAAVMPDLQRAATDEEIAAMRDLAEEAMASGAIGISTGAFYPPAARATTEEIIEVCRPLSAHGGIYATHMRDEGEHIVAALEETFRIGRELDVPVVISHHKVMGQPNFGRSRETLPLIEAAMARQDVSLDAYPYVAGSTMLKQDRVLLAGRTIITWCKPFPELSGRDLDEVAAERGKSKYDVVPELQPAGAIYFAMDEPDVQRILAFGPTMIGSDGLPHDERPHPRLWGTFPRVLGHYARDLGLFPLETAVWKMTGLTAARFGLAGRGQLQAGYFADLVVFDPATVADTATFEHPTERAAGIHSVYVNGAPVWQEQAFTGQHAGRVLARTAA", "experiment": "Inhibition/kinetics test of purified mutant D-aminoacylase M347-0133", "format": "biochemical", "procedure": "as §1, §2, §3, §6, §5"}, "[5]": {"target": "T2, Alcaligenes denitrificans subsp. xylosoxydans MI-4 D-aminoacylase mutant 3AD-0089 (A154V/M347A/R374F of SEQ ID NO: 1) (Alcaligenes xylosoxydans xylosoxydans, UniProt P72349, A154V/M347A/R374F)", "T2 construct": "made in house; host or cells: E. coli", "T2 sequence (P72349 whole entry A154V/M347A/R374F)": "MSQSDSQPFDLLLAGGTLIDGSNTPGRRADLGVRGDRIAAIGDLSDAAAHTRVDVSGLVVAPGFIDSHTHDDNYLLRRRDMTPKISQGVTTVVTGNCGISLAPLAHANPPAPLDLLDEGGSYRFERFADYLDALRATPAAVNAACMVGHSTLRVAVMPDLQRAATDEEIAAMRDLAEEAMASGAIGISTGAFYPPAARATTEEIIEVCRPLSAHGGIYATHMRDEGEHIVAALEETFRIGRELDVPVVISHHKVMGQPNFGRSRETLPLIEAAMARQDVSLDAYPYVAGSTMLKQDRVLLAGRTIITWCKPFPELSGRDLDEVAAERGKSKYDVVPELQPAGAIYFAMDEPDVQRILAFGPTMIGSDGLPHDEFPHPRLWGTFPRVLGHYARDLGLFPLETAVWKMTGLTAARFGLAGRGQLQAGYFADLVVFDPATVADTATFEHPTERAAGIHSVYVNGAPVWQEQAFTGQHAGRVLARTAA", "experiment": "Inhibition/kinetics test of purified mutant D-aminoacylase 3AD-0089", "format": "biochemical", "procedure": "as §1, §2, §3\n(§7) The mutant D-aminoacylase 3AD-0089 was purified from an E. coli transformant having the plasmid pSL-AD10 that contains DNA encoding the mutant D-aminoacylase 3AD-0089 by the same method as described in Example 19.\nas §5"}, "[6]": {"test_system": "Methylobacterium mesophilicum D-aminoacylase", "settings": "at concentrations as high as 100 g/l; cited from earlier work"}, "[7]": {"target": "T3, Alcaligenes denitrificans subsp. xylosoxydans MI-4 D-aminoacylase mutant A154-0043 (A154V of SEQ ID NO: 1) (Alcaligenes xylosoxydans xylosoxydans, UniProt P72349, A154V)", "T3 construct": "made in house; host or cells: E. coli", "T3 sequence (P72349 whole entry A154V)": "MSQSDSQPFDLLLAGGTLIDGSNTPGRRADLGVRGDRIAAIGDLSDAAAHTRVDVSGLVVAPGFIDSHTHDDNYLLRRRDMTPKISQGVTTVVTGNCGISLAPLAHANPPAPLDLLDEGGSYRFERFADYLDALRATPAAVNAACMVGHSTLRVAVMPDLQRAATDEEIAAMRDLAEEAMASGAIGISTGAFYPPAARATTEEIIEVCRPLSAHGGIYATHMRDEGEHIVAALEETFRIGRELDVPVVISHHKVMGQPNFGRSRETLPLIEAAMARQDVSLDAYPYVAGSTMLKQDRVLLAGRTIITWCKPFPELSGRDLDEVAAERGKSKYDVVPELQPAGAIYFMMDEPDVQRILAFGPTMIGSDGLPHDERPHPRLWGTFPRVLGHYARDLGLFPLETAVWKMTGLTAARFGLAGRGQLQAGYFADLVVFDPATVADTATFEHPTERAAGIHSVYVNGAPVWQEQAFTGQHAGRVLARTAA", "experiment": "Inhibition/kinetics test of purified mutant D-aminoacylase A154-0043", "format": "biochemical", "procedure": "as §1, §2, §3\n(§8) The mutant D-aminoacylase A154-0043 was purified from an E. coli transformant having the plasmid pSL-AD07 that contains DNA encoding the mutant D-aminoacylase A154-0043 by the same method as described in Example 19.\nas §5"}, "[8]": {"target": "T4, Alcaligenes denitrificans subsp. xylosoxydans MI-4 D-aminoacylase mutant R374-0017 (R374F of SEQ ID NO: 1) (Alcaligenes xylosoxydans xylosoxydans, UniProt P72349, R374F)", "T4 construct": "made in house; host or cells: E. coli", "T4 sequence (P72349 whole entry R374F)": "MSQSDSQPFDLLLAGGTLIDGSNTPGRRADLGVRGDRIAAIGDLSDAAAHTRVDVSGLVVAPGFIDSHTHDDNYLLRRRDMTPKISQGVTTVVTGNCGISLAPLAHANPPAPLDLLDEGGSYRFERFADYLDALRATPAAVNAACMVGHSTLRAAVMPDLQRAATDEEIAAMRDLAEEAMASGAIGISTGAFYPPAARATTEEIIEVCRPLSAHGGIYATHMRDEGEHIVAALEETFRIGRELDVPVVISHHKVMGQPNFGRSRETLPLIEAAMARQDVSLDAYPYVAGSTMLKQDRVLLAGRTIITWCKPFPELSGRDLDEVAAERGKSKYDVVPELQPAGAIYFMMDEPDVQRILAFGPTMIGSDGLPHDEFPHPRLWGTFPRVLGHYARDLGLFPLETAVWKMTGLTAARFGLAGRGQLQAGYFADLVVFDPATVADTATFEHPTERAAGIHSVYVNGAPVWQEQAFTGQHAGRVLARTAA", "experiment": "Inhibition/kinetics test of purified mutant D-aminoacylase R374-0017", "format": "biochemical", "procedure": "as §1, §2, §3, §4, §5"}, "[9]": {"test_system": "Nocardioides thermolilacinus D-aminoacylase", "settings": "at concentrations as high as 100 g/l; cited from earlier work"}, "[10]": {"test_system": "CC(=O)N[C@H](Cc1c[nH]c2ccccc12)C(=O)O", "experiment": "Inhibition/kinetics test of purified mutant D-aminoacylase A154-0043", "format": "biochemical, Alcaligenes denitrificans subsp. xylosoxydans MI-4", "settings": "other: 30° C., pH7.5, for N-acetyl-D-tryptophan, pH 7.5", "procedure": "as §1, §2, §3, §8, §5"}, "[11]": {"test_system": "CC(=O)N[C@H](Cc1c[nH]c2ccccc12)C(=O)O", "experiment": "Inhibition/kinetics test of purified mutant D-aminoacylase 3AD-0089", "format": "biochemical, Alcaligenes denitrificans subsp. xylosoxydans MI-4", "settings": "other: 30° C., pH7.5, for N-acetyl-D-tryptophan, pH 7.5", "procedure": "as §1, §2, §3, §7, §5"}, "[12]": {"test_system": "CC(=O)N[C@H](Cc1c[nH]c2ccccc12)C(=O)O", "experiment": "purified protein, by the assay type", "settings": "other: 30° C., pH7.5, for N-acetyl-D-tryptophan, pH 7.5"}, "[13]": {"experiment": "D-aminoacylase activity assay (20 mM N-acetyl-D-tryptophan, TNBS method)", "format": "biochemical", "settings": "cell extract of E. coli JM109 transformant", "procedure": "as §1, §2"}, "[14]": {"settings": "30° C., pH7.5, for N-acetyl-D-tryptophan"}, "[15]": {"settings": "30° C., pH7.5, substrate inhibition by N-acetyl-D-tryptophan"}}, "data": [{"molecule": "Alcaligenes denitrificans subsp. xylosoxydans MI-4 D-aminoacylase mutant R374-0017 (R374F of SEQ ID NO: 1) (Achromobacter xylosoxidans; R374F)", "values": [{"measurement": "Km", "setting": "[1]", "value": 1940, "unit": "µM"}]}, {"molecule": "Alcaligenes denitrificans subsp. xylosoxydans MI-4 D-aminoacylase mutant M347-0133 (M347A of SEQ ID NO: 1) (Achromobacter xylosoxidans; M347A)", "values": [{"measurement": "Km", "setting": "[2]", "value": 1420, "unit": "µM"}]}, {"molecule": "CC(=O)N[C@H](Cc1c[nH]c2ccccc12)C(=O)O", "note": "[N-acetyl-D-tryptophan]", "values": [{"measurement": "Vmax (Lineweaver-Burk reciprocal plot)", "setting": "[3]; [14]", "value": 685}, {"measurement": "Ks′ (constant for reaction inhibition by excess substrate; [S]−1/v plot)", "setting": "[3]; [15]", "value": 1.29}, {"measurement": "Vmax (Lineweaver-Burk reciprocal plot)", "setting": "[4]; [14]", "value": 1000}, {"measurement": "Ks′ (constant for reaction inhibition by excess substrate; [S]−1/v plot)", "setting": "[4]; [15]", "value": 77.00}, {"measurement": "Vmax (Lineweaver-Burk reciprocal plot)", "setting": "[5]; [14]", "value": 357}, {"measurement": "substrate inhibition", "setting": "[5]; in the presence of 99 mM N-acetyl-D-tryptophan", "value": "not detectable"}, {"measurement": "inhibition by the substrate", "setting": "[6]", "value": "hardly inhibited"}, {"measurement": "Vmax (Lineweaver-Burk reciprocal plot)", "setting": "[7]; [14]", "value": 1031}, {"measurement": "Ks′ (constant for reaction inhibition by excess substrate; [S]−1/v plot)", "setting": "[7]; [15]", "value": 13.67}, {"measurement": "Vmax (Lineweaver-Burk reciprocal plot)", "setting": "[8]; [14]", "value": 1000}, {"measurement": "Ks′ (constant for reaction inhibition by excess substrate; [S]−1/v plot)", "setting": "[8]; [15]", "value": 93.00}, {"measurement": "inhibition by the substrate", "setting": "[9]", "value": "hardly inhibited"}]}, {"molecule": "Alcaligenes denitrificans subsp. xylosoxydans MI-4 D-aminoacylase mutant A154-0043 (A154V of SEQ ID NO: 1) (Achromobacter xylosoxidans; A154V)", "values": [{"measurement": "Km", "setting": "[10]", "value": 3440, "unit": "µM"}]}, {"molecule": "Alcaligenes denitrificans subsp. xylosoxydans MI-4 D-aminoacylase mutant 3AD-0089 (A154V/M347A/R374F of SEQ ID NO: 1) (Achromobacter xylosoxidans; A154V/M347A/R374F)", "values": [{"measurement": "Km", "setting": "[11]", "value": 1460, "unit": "µM"}]}, {"molecule": "CC(=O)N[C@@H](Cc1c[nH]c2ccccc12)C(=O)O", "note": "[N-acetyl-L-tryptophan]", "values": [{"measurement": "Ki", "setting": "[3]", "value": 2.6, "unit": "mM"}, {"measurement": "Ki", "setting": "[4]", "value": 12.3, "unit": "mM"}, {"measurement": "competitive inhibition", "setting": "[5]; in the presence of 89 mM N-acetyl-L-tryptophan", "value": "not detectable"}, {"measurement": "Ki", "setting": "[7]", "value": 6.4, "unit": "mM"}, {"measurement": "Ki", "setting": "[8]", "value": 7.46, "unit": "mM"}]}, {"molecule": "Alcaligenes denitrificans subsp. xylosoxydans MI-4 D-aminoacylase, wild-type, SEQ ID NO: 1 (Achromobacter xylosoxidans)", "values": [{"measurement": "Km", "setting": "[12]", "value": 2530, "unit": "µM"}]}, {"molecule": "B1", "values": [{"measurement": "D-aminoacylase activity of cell extract", "setting": "[13]", "value": 86, "unit": "U/mg"}]}]}
